From ChEMBL document CHEMBL4665624, “Synthesis of 5-(4-(1H-phenanthro[9,10-d]imidazol-2-yl)benzylidene)thiazolidine-2,4-dione as promising DNA and serum albumin-binding agents and evaluation of antitumor activity” (Eur J Med Chem, 2019)

What follows are compounds tested on SN12C (assay: Antitumor activity against human SN12C cells assessed as cell growth inhibition at 10 uM incubated for 48 hrs by sulforhodamine B assay). Conditions: read-out: GI.
Assay type: functional
In the case of O=C1c2ccccc2C(=O)c2c1ccc1[nH]c(-c3ccc(-c4nc5c6ccccc6c6ccccc6c5[nH]4)cc3)nc21, the inhibition of growth at 10 µM was < 10%.

Each compound was assayed on MDA-MB-468 (assay: Antitumor activity against human MDA-MB-468 cells assessed as cell growth inhibition at 10 uM incubated for 48 hrs by sulforhodamine B assay). Conditions: read-out: GI.
Assay type: functional
O=C1c2ccccc2C(=O)c2c1ccc1[nH]c(-c3ccc(-c4nc5c6ccccc6c6ccccc6c5[nH]4)cc3)nc21 was tested, and the inhibition of growth at 10 µM was < 10%.

Each compound was assayed on OVCAR-3 (assay: Antitumor activity against human OVCAR-3 cells assessed as cell growth inhibition at 10 uM incubated for 48 hrs by sulforhodamine B assay). Conditions: read-out: GI.
Assay type: functional
In the case of O=C1c2ccccc2C(=O)c2c1ccc1[nH]c(-c3ccc(-c4nc5c6ccccc6c6ccccc6c5[nH]4)cc3)nc21, the inhibition of growth at 10 µM was < 10%.

Each compound was assayed on NCI/ADR-RES (assay: Antitumor activity against human NCI/ADR-RES cells assessed as cell growth inhibition at 10 uM incubated for 48 hrs by sulforhodamine B assay). Conditions: read-out: GI.
Assay type: functional
In the case of O=C1c2ccccc2C(=O)c2c1ccc1[nH]c(-c3ccc(-c4nc5c6ccccc6c6ccccc6c5[nH]4)cc3)nc21, the inhibition of growth at 10 µM was < 10%.

Each compound was assayed on U-251 (assay: Antitumor activity against human U251 cells assessed as cell growth inhibition at 10 uM incubated for 48 hrs by sulforhodamine B assay). Conditions: read-out: GI.
Assay type: functional
In the case of O=C1c2ccccc2C(=O)c2c1ccc1[nH]c(-c3ccc(-c4nc5c6ccccc6c6ccccc6c5[nH]4)cc3)nc21, the inhibition of growth at 10 µM was < 10%.

Each compound was assayed on HCT-15 (assay: Antitumor activity against human HCT15 cells assessed as cell growth inhibition at 10 uM incubated for 48 hrs by sulforhodamine B assay). Conditions: read-out: GI.
Assay type: functional
For O=C1c2ccccc2C(=O)c2c1ccc1[nH]c(-c3ccc(-c4nc5c6ccccc6c6ccccc6c5[nH]4)cc3)nc21, the inhibition of growth at 10 µM was < 10%.

What follows are compounds tested on UACC-62 (assay: Antitumor activity against human UACC-62 cells assessed as cell growth inhibition at 10 uM incubated for 48 hrs by sulforhodamine B assay). Conditions: read-out: GI.
Assay type: functional
O=C1c2ccccc2C(=O)c2c1ccc1[nH]c(-c3ccc(-c4nc5c6ccccc6c6ccccc6c5[nH]4)cc3)nc21 was tested, and the inhibition of growth at 10 µM was < 10%.

These compounds were tested on OVCAR-4 (assay: Antitumor activity against human OVCAR-4 cells assessed as cell growth inhibition at 10 uM incubated for 48 hrs by sulforhodamine B assay). Conditions: read-out: GI.
Assay type: functional
For O=C1c2ccccc2C(=O)c2c1ccc1[nH]c(-c3ccc(-c4nc5c6ccccc6c6ccccc6c5[nH]4)cc3)nc21, the inhibition of growth at 10 µM was 89%.

Each compound was assayed on Hs-578T (assay: Antitumor activity against human HS 578T cells assessed as cell growth inhibition at 10 uM incubated for 48 hrs by sulforhodamine B assay). Conditions: read-out: GI.
Assay type: functional
For O=C1c2ccccc2C(=O)c2c1ccc1[nH]c(-c3ccc(-c4nc5c6ccccc6c6ccccc6c5[nH]4)cc3)nc21, the inhibition of growth at 10 µM was < 10%.

These compounds were tested on HOP-92 (assay: Antitumor activity against human HOP92 cells assessed as cell growth inhibition at 10 uM incubated for 48 hrs by sulforhodamine B assay). Conditions: read-out: GI.
Assay type: functional
In the case of O=C1c2ccccc2C(=O)c2c1ccc1[nH]c(-c3ccc(-c4nc5c6ccccc6c6ccccc6c5[nH]4)cc3)nc21, the inhibition of growth at 10 µM was < 10%.

Each compound was assayed on BT-549 (assay: Antitumor activity against human BT-549 cells assessed as cell growth inhibition at 10 uM incubated for 48 hrs by sulforhodamine B assay). Conditions: read-out: GI.
Assay type: functional
For O=C1c2ccccc2C(=O)c2c1ccc1[nH]c(-c3ccc(-c4nc5c6ccccc6c6ccccc6c5[nH]4)cc3)nc21, the inhibition of growth at 10 µM was < 10%.

These compounds were tested on Malme-3M (assay: Antitumor activity against human MALME-3M cells assessed as cell growth inhibition at 10 uM incubated for 48 hrs by sulforhodamine B assay). Conditions: read-out: GI.
Assay type: functional
O=C1c2ccccc2C(=O)c2c1ccc1[nH]c(-c3ccc(-c4nc5c6ccccc6c6ccccc6c5[nH]4)cc3)nc21 was tested, and the inhibition of growth at 10 µM was < 10%.

The compounds below were run on SNB-19 (assay: Antitumor activity against human SNB-19 cells assessed as cell growth inhibition at 10 uM incubated for 48 hrs by sulforhodamine B assay). Conditions: read-out: GI.
Assay type: functional
For O=C1c2ccccc2C(=O)c2c1ccc1[nH]c(-c3ccc(-c4nc5c6ccccc6c6ccccc6c5[nH]4)cc3)nc21, the inhibition of growth at 10 µM was < 10%.

Each compound was assayed on HT-29 (assay: Antitumor activity against human HT-29 cells assessed as cell growth inhibition at 10 uM incubated for 48 hrs by sulforhodamine B assay). Conditions: read-out: GI.
Assay type: functional
O=C1c2ccccc2C(=O)c2c1ccc1[nH]c(-c3ccc(-c4nc5c6ccccc6c6ccccc6c5[nH]4)cc3)nc21 was tested, and the inhibition of growth at 10 µM was < 10%.

The compounds below were run on MDA-MB-231 (assay: Antitumor activity against human MDA-MB-231/ATCC cells assessed as cell growth inhibition at 10 uM incubated for 48 hrs by sulforhodamine B assay). Conditions: read-out: GI.
Assay type: functional
For O=C1c2ccccc2C(=O)c2c1ccc1[nH]c(-c3ccc(-c4nc5c6ccccc6c6ccccc6c5[nH]4)cc3)nc21, the inhibition of growth at 10 µM was 14.4%.

The compounds below were run on IGROV-1 (assay: Antitumor activity against human IGROV1 cells assessed as cell growth inhibition at 10 uM incubated for 48 hrs by sulforhodamine B assay). Conditions: read-out: GI.
Assay type: functional
With O=C1c2ccccc2C(=O)c2c1ccc1[nH]c(-c3ccc(-c4nc5c6ccccc6c6ccccc6c5[nH]4)cc3)nc21 the inhibition of growth at 10 µM was < 10%.

Each compound was assayed on OVCAR-8 (assay: Antitumor activity against human OVCAR-8 cells assessed as cell growth inhibition at 10 uM incubated for 48 hrs by sulforhodamine B assay). Conditions: read-out: GI.
Assay type: functional
With O=C1c2ccccc2C(=O)c2c1ccc1[nH]c(-c3ccc(-c4nc5c6ccccc6c6ccccc6c5[nH]4)cc3)nc21 the inhibition of growth at 10 µM was < 10%.

The compounds below were run on NCI-H226 (assay: Antitumor activity against human NCI-H226 assessed as cell growth inhibition at 10 uM incubated for 48 hrs by sulforhodamine B assay). Conditions: read-out: GI.
Assay type: functional
In the case of O=C1c2ccccc2C(=O)c2c1ccc1[nH]c(-c3ccc(-c4nc5c6ccccc6c6ccccc6c5[nH]4)cc3)nc21, the inhibition of growth at 10 µM was < 10%.

Each compound was assayed on COLO 205 (assay: Antitumor activity against human COLO205 cells assessed as cell growth inhibition at 10 uM incubated for 48 hrs by sulforhodamine B assay). Conditions: read-out: GI.
Assay type: functional
In the case of O=C1c2ccccc2C(=O)c2c1ccc1[nH]c(-c3ccc(-c4nc5c6ccccc6c6ccccc6c5[nH]4)cc3)nc21, the inhibition of growth at 10 µM was < 10%.

The compounds below were run on CCRF-CEM (assay: Antitumor activity against human CCRF-CEM cells assessed as cell growth inhibition at 10 uM incubated for 48 hrs by sulforhodamine B assay). Conditions: read-out: GI.
Assay type: functional
For O=C1c2ccccc2C(=O)c2c1ccc1[nH]c(-c3ccc(-c4nc5c6ccccc6c6ccccc6c5[nH]4)cc3)nc21, the inhibition of growth at 10 µM was < 10%.

These compounds were tested on HCT-116 (assay: Antitumor activity against human HCT116 cells assessed as cell growth inhibition at 10 uM incubated for 48 hrs by sulforhodamine B assay). Conditions: read-out: GI.
Assay type: functional
For O=C1c2ccccc2C(=O)c2c1ccc1[nH]c(-c3ccc(-c4nc5c6ccccc6c6ccccc6c5[nH]4)cc3)nc21, the inhibition of growth at 10 µM was < 10%.

What follows are compounds tested on M14 (assay: Antitumor activity against human M14 cells assessed as cell growth inhibition at 10 uM incubated for 48 hrs by sulforhodamine B assay). Conditions: read-out: GI.
Assay type: functional
For O=C1c2ccccc2C(=O)c2c1ccc1[nH]c(-c3ccc(-c4nc5c6ccccc6c6ccccc6c5[nH]4)cc3)nc21, the inhibition of growth at 10 µM was < 10%.

What follows are compounds tested on EKVX (assay: Antitumor activity against human EKVX cells assessed as cell growth inhibition at 10 uM incubated for 48 hrs by sulforhodamine B assay). Conditions: read-out: GI.
Assay type: functional
O=C1c2ccccc2C(=O)c2c1ccc1[nH]c(-c3ccc(-c4nc5c6ccccc6c6ccccc6c5[nH]4)cc3)nc21 was tested, and the inhibition of growth at 10 µM was 10.3%.

What follows are compounds tested on 786-0 (assay: Antitumor activity against human 786-0 cells assessed as cell growth inhibition at 10 uM incubated for 48 hrs by sulforhodamine B assay). Conditions: read-out: GI.
Assay type: functional
For O=C1c2ccccc2C(=O)c2c1ccc1[nH]c(-c3ccc(-c4nc5c6ccccc6c6ccccc6c5[nH]4)cc3)nc21, the inhibition of growth at 10 µM was < 10%.
